Results published in US20150342964A1, “DEXAMETHASONE POLYMER IMPLANT FOR PAIN” (Warsaw Orthopedic, Inc., priority 2014, published 2015).
“Also recorded” adds a separate entry of the source.

How the values were obtained:
[1] = tested on: rat chronic constriction injury (CCI) model; test: Thermal Paw Withdrawal Latency Test (thermal hyperalgesia) in rat CCI model of neuropathic pain; conditions: systemic, subcutaneous 0.02 mg/kg every day from day 7 post-surgery; p<0.05
[2] = tested on: rat chronic constriction injury (CCI) model; test: von Frey Monofilament Test (mechanical/tactile allodynia) in rat CCI model of neuropathic pain; conditions: systemic, subcutaneous 0.02 mg/kg every day from day 7 post-surgery
[3] = Body weight, side effects and adverse reactions observed over the 57-day rat CCI study; conditions: systemic, sc 0.02 mg/kg every day, 57-day study

| Compound | thermal paw withdrawal responses/latencies relative to both PBS and unloaded PLA pellet [1] | mechanical allodynia (paw withdrawal threshold) relative to either PBS or unloaded pellet [2] | overt side effects or adverse reactions at the site of injection [3] |
| --- | --- | --- | --- |
| Clc1cccc(Cl)c1N=C1NCCN1 [clonidine] | increased thermal paw withdrawal latencies on various test days | no effect on paw withdrawal threshold responses | no overt side effects or adverse reactions at the site of injection; also recorded: did not cause any overt side effects or adverse reactions |
| C[C@@H]1C[C@H]2[C@@H]3CCC4=CC(=O)C=C[C@]4(C)[C@@]3(F)[C@@H](O)C[C@]2(C)[C@@]1(O)C(=O)CO [dexamethasone, (8S, 9R, 10S, 11S, 13S, 14S, 16R, 17R)-9-Fluoro-11,17-dihydroxy-17-(2-hydroxyacetyl)-10,13,16-trimethyl-6,7,8,11,12,14,15,16-octahydro-cyclopenta[a]phenanthren-3-one] |  |  | no overt side effects or adverse reactions at the site of injection; also recorded: did not cause any overt side effects or adverse reactions |
